Patent US20260083769A1, “2-Aminopropane-1,3-Diol-Capped Cationic Peptoids for Nucleic Acid Delivery” (NUTCRACKER THERAPEUTICS, INC., priority 2022, published 2026)
Entries after “also recorded” stand apart in the source; their conditions may differ. Where a SMILES comes first, the peptide text is derived from it. [ ]: non-standard residue; d: D form. N(2-ethylhexyl)Gly = CCCCC(CC)CNCC(=O)O; Gly(N-dodecyl) = CCCCCCCCCCCCNCC(=O)O; N(CH(CH2OH)2)Gly = O=C(O)CNC(CO)CO; NHexGly = CCCCCCNCC(=O)O

Columns and labels:
[1] = Apparent particle pKa, TNS fluorescence assay; type: physicochemical; details: Table 5; apparent particle pKa of delivery vehicle
Protocol: The apparent particle pKa was assessed by a TNS fluorescence assay. Briefly, particles were diluted to 130 uM total lipid in TNS buffer ranging in pH 3-11 for 10 minutes with […] of TNS probe. The fluorescence was measured at room temperature in a plate reader ex 320/em 445. Fluorescence intensity was normalized to the minimal and maximal values and the pKa was determined by a 3 parameter fit to determine the half maximum of the curve.

BALB/c mice [2] = test: Serum anti-RSV antibody (aRSV) after IV dose of aRSV mRNA delivery vehicles, IgG ELISA; type: in vivo; details: for serum levels of aRSV (secreted protein expression): BALB/c mice, IV, 0.75 mg/kg mRNA, after 24 hours, IgG ELISA; for secreted protein (serum aRSV) expression in vivo, comparison of monomer order isomers: Compound 31 versus Compound 41
Protocol: (§1) For imaging studies, female BALB/c mice (6-8 weeks old) were obtained and acclimatized for a minimum of 3 days prior to experiments. The animals were maintained on a 12 hour light cycle in a temperature and humidity controlled room. A daily health check was performed as well as food and water check. For dosing, mice were injected with 2.5 μg fLuc mRNA-containing delivery vehicles intravenously in 100 μL total injection volume. At 6 hours post-injection, mice were anesthetized with isoflurane, and injected intraperitoneally with 30 mg/mL D-luciferin at a dose of 10 μL per gram bodyweight intraperitoneally. Imaging was done 10 minutes post D-luciferin injection using an IVIS® Spectrum Imaging System. Immediately after in vivo imaging, mice were terminally bled by cardiac puncture and euthanized. The organs of interest were harvested, placed in black 24-well plates, and imaged. Living Image® software was used to quantify the total photon flux in regions of interest. For secreted protein studies, mice were injected with aRSV mRNA-containing delivery vehicles intravenously in 100 μL total injection volume. Mice were euthanized after 24 hours, with serum collection at 6 and 24 hours post-injection. Serum was used to quantify secreted aRSV levels using ELISA following the manufacturer's recommendation for IgG using a standard curve generated from aRSV protein.
To understand how the delivery vehicles disclosed herein (e.g., delivery vehicles comprising compounds of Formula (I)) performed as systemic delivery vehicles, the top four candidates for firefly luciferase expression from the optimized DOE model (Compounds 12, 41, 34, and 35) were evaluated for their ability to produce anti-RSV antibody in BALB/c mice. Anti-RSV was chosen as a model target due to the availability of therapeutic benchmarking information and sequence availability. Delivery vehicles comprising aRSV were formulated from two mRNA molecules encoding the heavy and light chain at a 2:1 mass ratio. All delivery vehicles were below 120 nm in size with encapsulation greater than 85% (Table 7).
Delivery vehicles were dosed intravenously in BALB/c mice at a total dose of 0.75 mg/kg mRNA and serum levels of aRSV were compared after 24 hours by an IgG ELISA.

[3] = Zeta potential of delivery vehicles; type: physicochemical; details: Table 5; delivery vehicle, pH 7 buffer; in mV (unit assumed)
BALB/c mice [4] = test: In vivo fLuc mRNA expression after IV dose, whole body and organ bioluminescence; details: for fLuc (luciferase) expression in vivo: BALB/c mice, IV, luminescence 6 hours after dose, lipid block screen; for luciferase expression in vivo, comparison of monomer order isomers: Compound 31 versus Compound 41
From the text: In one particular instance, peptoids disclosed herein were formulated into delivery vehicles by first dissolving in ethanol along with DSPC, cholesterol, and DMG-PEG2000 at weight ratio of 20:1.8:7.2:1.8 (Formulation D22 in Table 3, above), then mixed with firefly luciferase (fLuc) mRNA dissolved in an aqueous buffer at a volume ratio of 1:3 via microfluidic nanoprecipitation on a turbulent mixing device, resulting in small, low dispersity particles. Physical particle properties were characterized. Delivery vehicles with initial sizes larger than 120 nm were not brought forward into in vivo screening as liver fenestrae primarily accommodate LNPs sized under 100 nm. In vivo expression of delivery vehicles comprising peptoids with varied headgroups was evaluated using fLuc expression in BALB/c mice 6 hours after IV dose (FIG. 1). […] The aminoethyl and aminopropyl headgroups both show preferential expression in lung (FIG. 2), potentially due to the high basicity of the pendant primary amine, as groups with higher pKas are known to accumulate in that organ. […] While spleen and lung selectivity merit further optimization for future therapeutic applications, liver-selective targets were used for further studies herein to prepare for systemic delivery of antibody targets and maximize their serum expression with anti-RSV cargo.
Intravenous administration. The delivery vehicle complexes disclosed herein are effective for in vivo administration of Fluc mRNA to BALB/c mice through multiple routes of administration. In general, delivery system complexes were administered at a dose of 0.5 mg/kg via a tail-vein injection, and the resulting bioluminescence was quantified after 6 hours. Organ-specific bioluminescence was quantified by sacrificing the treated animal, dissecting out the organs of interest, and separately quantifying the resulting bioluminescence
In one particular instance, to investigate how the peptoid lipid block impacts in vivo expression, delivery vehicles with diameter larger than 120 nm were excluded and remaining candidates were administered IV to BALB/c mice. Luminescence was measured after 6 hours and the resulting expression in liver, lung and spleen were quantified. Even without changing the cationic headgroup, luciferase expression spanned 4 orders of magnitude as a result of altering the lipid block in this series. […] In vivo expression of all candidates was then fit to a multi-parameter model containing the 4 input parameters to understand the individual contributions of each factor to overall performance. […] Contour plots of the impact of these factors on expression (all using Ehx as the branched/unsaturated monomer) are shown in FIG. 4.
as §1, with “Serum was used to quantify secreted aRSV levels using ELISA following the manufacturer's recommendation for IgG using a standard curve generated from aRSV protein.” left out

Row | SMILES | pKa (TNS) [1] | serum levels of aRSV (secreted protein expression) (BALB/c mice [2]; 0.75 mg/kg) | secreted protein (serum aRSV) expression in vivo, comparison of monomer order isomers (BALB/c mice [2]) | dependence of serum aRSV titers on injected dose (BALB/c mice [2]; Compound 41 in Formulation D22, 0.3, 0.75, and 1.5 mg/kg) | time aRSV titers were observed in the serum (BALB/c mice [2]; Compound 41 in Formulation D22, mice, post-dosing) | Zeta Potential [3] | fLuc (luciferase) expression in vivo (BALB/c mice [4]) | luciferase expression in vivo, comparison of monomer order isomers (BALB/c mice [4]) | serum levels of aRSV (secreted protein expression) (BALB/c mice [2])
1 | CCCCCCCCCCCCN(CC(=O)N(CC(=O)N(CC(=O)N(CCCCCCCCCCCC)CC(=O)N(CC(N)=O)CC(CC)CCCC)CC(CC)CCCC)CC(CC)CCCC)C(=O)CN(CC(CC)CCCC)C(=O)CNC(CO)CO (centres unmarked) [Compound 41] (H-[N(CH(CH2OH)2)Gly][N(2-ethylhexyl)Gly][Gly(N-dodecyl)][N(2-ethylhexyl)Gly][N(2-ethylhexyl)Gly][Gly(N-dodecyl)][N(2-ethylhexyl)Gly]-NH2) | 6.068 | highest levels of secreted protein expression; also recorded: highest overall aRSV titers | within error | generally linear dependence on injected dose | > 5 days | −5.38 | top expressers | within error | 
2 | CCCCCCCCCCCCN(CC(=O)N(CC(=O)N(CC(=O)N(CCCCCCCCCCCC)CC(=O)N(CC(=O)N(CC(N)=O)CC(CC)CCCC)CC(CC)CCCC)CC(CC)CCCC)CC(CC)CCCC)C(=O)CNC(CO)CO (centres unmarked) [Compound 31] (H-[N(CH(CH2OH)2)Gly][Gly(N-dodecyl)][N(2-ethylhexyl)Gly][N(2-ethylhexyl)Gly][Gly(N-dodecyl)][N(2-ethylhexyl)Gly][N(2-ethylhexyl)Gly]-NH2) | 6.523 |  | within error |  |  | −11.2 |  | within error | 
3 | CCCCCCCCCCCCN(CC(=O)N(CC(N)=O)CC(CC)CCCC)C(=O)CN(CCCCCC)C(=O)CN(CC(CC)CCCC)C(=O)CN(CCCCCCCCCCCC)C(=O)CN(CCCCCC)C(=O)CNC(CO)CO (centres unmarked) [Compound 34] (H-[N(CH(CH2OH)2)Gly][NHexGly][Gly(N-dodecyl)][N(2-ethylhexyl)Gly][NHexGly][Gly(N-dodecyl)][N(2-ethylhexyl)Gly]-NH2) | 6.374 |  |  |  |  | −9.58 | top expressers |  | highest levels of secreted protein expression
4 | CCCCCCN(CC(N)=O)C(=O)CN(CC(CC)CCCC)C(=O)CN(CC(CC)CCCC)C(=O)CN(CCCCCC)C(=O)CN(CC(CC)CCCC)C(=O)CN(CC(CC)CCCC)C(=O)CNC(CO)CO (centres unmarked) [Compound 12] (H-[N(CH(CH2OH)2)Gly][N(2-ethylhexyl)Gly][N(2-ethylhexyl)Gly][NHexGly][N(2-ethylhexyl)Gly][N(2-ethylhexyl)Gly][NHexGly]-NH2) | 6.018 |  |  |  |  | −8.68 | top expressers; also recorded: highest overall fLuc expression |  | lowest aRSV expression of the top 4 candidates
